Each compound was assayed against T1, Recombinant human TLR7 (Homo sapiens, UniProt Q9NYK1) (assay: Human TLR7 Assay (SEAP reporter)). Details: HEK293 cell line stably expressing human TLR7 and pNiFty2-SEAP reporter; SEAP induction after overnight incubation at 37° C., 0.1% (v/v) DMSO.
T1 construct: expressed in transfected cells; host or cells: HEK293 cell line stably expressing the pNiFty2-SEAP reporter plasmid; TLR7 in vector pUNO, blasticidin selection
T1 sequence (Q9NYK1 27-1049): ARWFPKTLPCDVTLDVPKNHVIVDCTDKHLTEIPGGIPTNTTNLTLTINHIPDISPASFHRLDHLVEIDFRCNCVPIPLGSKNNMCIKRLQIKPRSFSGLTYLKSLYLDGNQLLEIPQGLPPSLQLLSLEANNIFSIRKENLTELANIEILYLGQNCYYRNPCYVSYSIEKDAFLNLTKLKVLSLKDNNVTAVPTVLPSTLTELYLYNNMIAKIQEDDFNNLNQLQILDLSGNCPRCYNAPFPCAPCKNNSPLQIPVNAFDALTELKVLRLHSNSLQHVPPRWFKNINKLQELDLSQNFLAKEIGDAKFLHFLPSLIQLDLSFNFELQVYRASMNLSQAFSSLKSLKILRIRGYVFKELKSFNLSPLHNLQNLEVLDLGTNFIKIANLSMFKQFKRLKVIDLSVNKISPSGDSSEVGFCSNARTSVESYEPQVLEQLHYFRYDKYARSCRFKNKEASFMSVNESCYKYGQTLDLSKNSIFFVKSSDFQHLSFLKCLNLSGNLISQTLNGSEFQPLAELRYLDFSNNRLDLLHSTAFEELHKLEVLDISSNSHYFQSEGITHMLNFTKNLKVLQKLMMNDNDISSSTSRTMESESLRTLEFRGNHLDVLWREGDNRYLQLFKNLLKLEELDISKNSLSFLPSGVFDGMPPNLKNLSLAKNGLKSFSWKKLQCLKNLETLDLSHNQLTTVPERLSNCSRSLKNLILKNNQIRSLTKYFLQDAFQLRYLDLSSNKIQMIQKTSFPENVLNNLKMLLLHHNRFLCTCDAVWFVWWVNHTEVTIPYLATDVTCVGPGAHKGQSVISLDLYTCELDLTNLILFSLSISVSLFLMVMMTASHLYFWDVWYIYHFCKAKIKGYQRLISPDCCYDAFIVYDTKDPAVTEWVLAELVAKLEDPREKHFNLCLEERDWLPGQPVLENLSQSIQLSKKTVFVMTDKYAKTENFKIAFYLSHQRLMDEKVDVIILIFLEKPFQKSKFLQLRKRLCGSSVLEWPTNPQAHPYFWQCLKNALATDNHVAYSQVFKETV
Type: cell-based
Text: Recombinant human TLR7 was stably expressed in a HEK293 cell line already stably expressing the pNiFty2-SEAP reporter plasmid; integration of the reporter gene was maintained by selection with the antibiotic zeocin. The most common variant sequence of human TLR7 (represented by the EMBL sequence AF240467) was cloned into the mammalian cell expression vector pUNO and transfected into this reporter cell-line. Transfectants with stable expression were selected using the antibiotic blasticidin. In this reporter cell-line, expression of secreted alkaline phosphatase (SEAP) is controlled by an NFkB/ELAM-1 composite promoter comprising five NFkB sites combined with the proximal ELAM-1 promoter. TLR signaling leads to the translocation of NFkB and activation of the promoter results in expression of the SEAP gene. TLR7-specific activation was assessed by determining the level of SEAP produced following overnight incubation of the cells at 37° C. with the standard compound in the presence of 0.1% (v/v) dimethylsulfoxide (DMSO). Concentration dependent induction of SEAP production by compounds was expressed as the concentration of compound which produced half of the maximal level of SEAP induction for that compound (pEC50).
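Also: SEAP driven by an NFkB-responsive composite promoter, pEC50 read at half of each compound's own maximal SEAP induction.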

EC50 | SMILES
501 nM | CCCCCNc1nc(N)nc(C)c1CCCNCc1cccc(CC(=O)OC)c1 [Example 1, Methyl 2-(3-((3-(2-Amino-4-methyl-6-(pentylamino)pyrimidin-5-yl)propylamino)methyl)phenyl)acetate]
1000 nM | CCCCCNc1nc(N)nc(C)c1CCCNCc1ccc(CC(=O)OC)cc1 [Example 2, Methyl 2-(4-((3-(2-amino-4-methyl-6-(pentylamino)pyrimidin-5-yl)propylamino)methyl)phenyl)acetate]
631 nM | CCCCCNc1nc(N)nc(C)c1CCCN(Cc1cccc(CC(=O)OC)c1)C(=O)CN(C)C [Example 3, Methyl 2-(3-((N-(3-(2-amino-4-methyl-6-(pentylamino)pyrimidin-5-yl)propyl)-2-(dimethylamino)acetamido)methyl)phenyl)acetate]
398 nM | CCCCCNc1nc(N)nc(C)c1CCCN(Cc1ccc(CC(=O)OC)cc1)C(=O)CN(C)C [Example 4, Methyl 2-(4-((N-(3-(2-amino-4-methyl-6-(pentylamino)pyrimidin-5-yl)propyl)-2-(dimethylamino)acetamido)methyl)phenyl)acetate]
631 nM | CCCCCNc1nc(N)nc(C)c1CCCN(Cc1cccc(CC(=O)OC)c1)C(=O)CN1CCC[C@H]1C(=O)OC [Example 5, (S)-Methyl 1-(2-((3-(2-amino-4-methyl-6-(pentylamino)pyrimidin-5-yl)propyl)(3-(2-methoxy-2-oxoethyl)benzyl)amino)-2-oxoethyl)pyrrolidine-2-carboxylate]
2510 nM | CCCCCNc1nc(N)nc(C)c1CCCN(Cc1cccc(CC(=O)OC)c1)C(=O)CN1CCC(O)CC1 [Example 7, Methyl 2-(3-((N-(3-(2-amino-4-methyl-6-(pentylamino)pyrimidin-5-yl)propyl)-2-(4-hydroxypiperidin-1-yl)acetamido)methyl)phenyl)acetate]
2510 nM | CCCCCNc1nc(N)nc(C)c1CCCN(Cc1cccc(CC(=O)OC)c1)C(=O)CN1CCCN(C(C)=O)CC1 [Example 8, Methyl 2-(3-((2-(4-acetyl-1,4-diazepan-1-yl)-N-(3-(2-amino-4-methyl-6-(pentylamino)pyrimidin-5-yl)propyl)acetamido)methyl)phenyl)acetate]
3980 nM | CCCCCNc1nc(N)nc(C)c1CCCN(Cc1cccc(CC(=O)OC)c1)C(=O)CN1CCN(CCCN(C)C)CC1 [Example 9, Methyl 2-(3-((N-(3-(2-amino-4-methyl-6-(pentylamino)pyrimidin-5-yl)propyl)-2-(4-(3-(dimethylamino)propyl)piperazin-1-yl)acetamido)methyl)phenyl)acetate]
1580 nM | CCCCCNc1nc(N)nc(C)c1CCCN(Cc1cccc(CC(=O)OC)c1)C(=O)CN(C)CCO [Example 10]
1000 nM | CCCCCNc1nc(N)nc(C)c1CCCN(Cc1cccc(CC(=O)OC)c1)C(=O)CCC(=O)OC [Example 11, Methyl 4-((3-(2-amino-4-methyl-6-(pentylamino)pyrimidin-5-yl)propyl)(3-(2-methoxy-2-oxoethyl)benzyl)amino)-4-oxobutanoate]
1580 nM | CCCCCNc1nc(N)nc(C)c1CCCN(Cc1cccc(CC(=O)OC)c1)C(=O)CCCN(C)C [Example 12, Methyl 2-(3-((N-(3-(2-amino-4-methyl-6-(pentylamino)pyrimidin-5-yl)propyl)-4-(dimethylamino)butanamido)methyl)phenyl)acetate]
2510 nM | CCCCCNc1nc(N)nc(C)c1CCCN(Cc1cccc(CC(=O)OC)c1)S(C)(=O)=O [Example 13, Methyl 2-(3-((N-(3-(2-amino-4-methyl-6-(pentylamino)pyrimidin-5-yl)propyl)methylsulfonamido)methyl)phenyl)acetate]
1260 nM | CCCCCNc1nc(N)nc(C)c1CCCN(Cc1cccc(CC(=O)OC)c1)S(=O)(=O)c1cn(C)cn1 [Example 14, Methyl 2-(3-((N-(3-(2-amino-4-methyl-6-(pentylamino)pyrimidin-5-yl)propyl)-1-methyl-1H-imidazole-4-sulfonamido)methyl)phenyl)acetate]
398 nM | CCCCCNc1nc(N)nc(C)c1CCCN(Cc1ccc(CC(=O)OC)cc1)C(=O)CN(C)CCOC [Example 15, Methyl 2-(4-((N-(3-(2-amino-4-methyl-6-(pentylamino)pyrimidin-5-yl)propyl)-2-((2-methoxyethyl)(methyl)amino)acetamido)methyl)phenyl)acetate]
1000 nM | CCCCCNc1nc(N)nc(C)c1CCCCNCc1cccc(CC(=O)OC)c1 [Example 17, Methyl 2-(3-((4-(2-amino-4-methyl-6-(pentylamino)pyrimidin-5-yl)butylamino)methyl)phenyl)acetate]
1580 nM | CCCC[C@@H](CCO)Nc1nc(N)nc(C)c1CCCNCc1ccc(CC(=O)OC)cc1 [Example 18, (S)-Methyl 2-(4-((3-(2-amino-4-(1-hydroxyheptan-3-ylamino)-6-methylpyrimidin-5-yl)propylamino)methyl)phenyl)acetate]
2510 nM | CCCC[C@@H](CCO)Nc1nc(N)nc(C)c1CCCN(Cc1ccc(CC(=O)OC)cc1)C(=O)CN(C)C [Example 19, (S)-Methyl 2-(4-((N-(3-(2-amino-4-(1-hydroxyheptan-3-ylamino)-6-methylpyrimidin-5-yl)propyl)-2-(dimethylamino)acetamido)methyl)phenyl)acetate]
2000 nM | CCCCCNc1nc(N)nc(C)c1Cc1cccc(CC(=O)OC)c1 [Example 20, Methyl 2-(3-((2-amino-4-methyl-6-(pentylamino)pyrimidin-5-yl)methyl)phenyl)acetate]
15.8 nM | CCCCCNc1nc(N)nc(C)c1Cc1ccc(CC(=O)OC)cc1OC [Example 21, Methyl 2-(4-((2-amino-4-methyl-6-(pentylamino)pyrimidin-5-yl)methyl)-3-methoxyphenyl)acetate]
631 nM | CCCCCNc1nc(N)nc(C)c1Cc1ccc(CC(=O)OC)cc1F [Example 22, Methyl 2-(4-((2-amino-4-methyl-6-(pentylamino)pyrimidin-5-yl)methyl)-3-fluorophenyl)acetate]
1000 nM | CCCCCNc1nc(N)nc(C)c1CCCNC(=O)Cc1ccc(CC(=O)OC)cc1 [Example 23, Methyl 2-(4-(2-(3-(2-amino-4-methyl-6-(pentylamino)pyrimidin-5-yl)propylamino)-2-oxoethyl)phenyl)acetate]
1000 nM | CCCCCNc1nc(N)nc(C)c1CCCNC(=O)Cc1cccc(CC(=O)OC)c1 [Example 24, Methyl 2-(3-(2-(3-(2-amino-4-methyl-6-(pentylamino)pyrimidin-5-yl)propylamino)-2-oxoethyl)phenyl)acetate]
794 nM | CCCCCNc1nc(N)nc(C)c1CCCNCc1cccc(OCC(=O)OC)c1 [Example 25, Methyl 2-(3-((3-(2-amino-4-methyl-6-(pentylamino)pyrimidin-5-yl)propylamino)methyl)phenoxy)acetate]
794 nM | CCCCCNc1nc(N)nc(C)c1CCCN(Cc1ccc(CC(=O)OC)cc1)C(=O)CN1CCCC(c2ccc(S(C)(=O)=O)cc2)C1 (stereo not shown) [Example 26, Methyl 2-(4-((N-(3-(2-amino-4-methyl-6-(pentylamino)pyrimidin-5-yl)propyl)-2-(3-(4-(methylsulfonyl)phenyl)piperidin-1-yl)acetamido)methyl)phenyl)acetate]
2000 nM | CCCCCNc1nc(N)nc(C)c1CCCN(Cc1ccc(CC(=O)OC)cc1)C(=O)CN1CCOCC1 [Example 27, Methyl 2-(4-((N-(3-(2-amino-4-methyl-6-(pentylamino)pyrimidin-5-yl)propyl)-2-morpholinoacetamido)methyl)phenyl)acetate]
1260 nM | CCCCCNc1nc(N)nc(C)c1CCCN(Cc1ccc(CC(=O)OC)cc1)C(=O)CN1CCC(c2ccccc2)CC1 [Example 28, Methyl 2-(4-((N-(3-(2-amino-4-methyl-6-(pentylamino)pyrimidin-5-yl)propyl)-2-(4-phenylpiperidin-1-yl)acetamido)methyl)phenyl)acetate]
794 nM | CCCCCNc1nc(N)nc(C)c1CCCN(Cc1ccc(CC(=O)OC)cc1)C(=O)CN1CCCCC1 [Example 29, Methyl 2-(4-((N-(3-(2-amino-4-methyl-6-(pentylamino)pyrimidin-5-yl)propyl)-2-(piperidin-1-yl)acetamido)methyl)phenyl)acetate]
31.6 nM | CCC[C@@H](CO)Nc1nc(N)nc(C)c1Cc1ccc(CC(=O)OC)cc1OC [Example 30, (S)-Methyl 2-(4-((2-amino-4-(1-hydroxypentan-2-ylamino)-6-methylpyrimidin-5-yl)methyl)-3-methoxyphenyl)acetate]
